{
  "source": "ChEMBL document CHEMBL4184161",
  "about": "“Novel all-hydrocarbon stapled p110α[E545K] peptides as blockers of the oncogenic p110α[E545K]-IRS1 interaction” (Bioorg Med Chem Lett, 2017)",
  "note": "Calls of active or inactive are those of the source. The calls are words filed in the database; no cut-off is given here. Numbered stars: 1 amine (or outer) side, 2 acyl side, 3 side chain; on linkers, the order of the positions; unused ones are H or OH. Bridge positions count the residues as written; N and C are the ends. Square brackets hold non-standard residues; d marks the D form. Peptide text beside a SMILES is read from it. X1 = C[C@](CCCCCC=[*:3])(N[*:1])C(=O)[*:2]; X2 = C[C@@](CCCCC=[*:3])(N[*:1])C(=O)[*:2]; R8 = C=CCCCCCC[C@@](C)(N)C(=O)O; S5 = C=CCCC[C@](C)(N)C(=O)O",
  "data": [
    {"test_system": "not listed separately", "assay": "Proteolytic stability of the compound assessed as Streptomyces griseus pronase-mediated compound hydrolysis by RP-HPLC method", "assay_type": "ADME", "values": [
      {"smiles": "CC[C@H](C)[C@H](NC(=O)[C@H](CCC(=O)O)NC(=O)[C@H](CO)NC(C)=O)C(=O)N[C@H](C(=O)N[C@@H](CCCCN)C(=O)N[C@@H](CCC(N)=O)C(=O)N[C@@H](CCC(=O)O)C(=O)N[C@@H](CCCCN)C(=O)N[C@@]1(C)CCC/C=C/CCC[C@@](C)(C(=O)N[C@@H](Cc2cnc[nH]2)C(=O)N[C@@H](CCCNC(=N)N)C(=O)N[C@@H](Cc2cnc[nH]2)C(=O)N[C@@H](Cc2ccc(O)cc2)C(=O)N[C@@H](CS)C(N)=O)NC(=O)[C@H](Cc2c[nH]c3ccccc23)NC(=O)[C@H](CC(C)C)NC(=O)[C@H](Cc2ccccc2)NC1=O)[C@@H](C)O", "note": "(Ac-SEITKQEK[S5]FLW[S5]HRHYC-NH2; staple (E) 9-13)", "Stability": "Stable"},
      {"smiles": "CC[C@H](C)[C@H](NC(=O)[C@H](CCC(=O)O)NC(=O)[C@H](CO)NC(C)=O)C(=O)N[C@H](C(=O)N[C@@H](CCCCN)C(=O)N[C@@H](CCC(N)=O)C(=O)N[C@@H](CCC(=O)O)C(=O)N[C@@H](CCCCN)C(=O)N[C@]1(C)CCCCCC=CCCCC[C@@](C)(C(=O)N[C@@H](Cc2ccc(O)cc2)C(=O)N[C@@H](CS)C(N)=O)NC(=O)[C@H](CCCNC(=N)N)NC(=O)[C@H](Cc2cnc[nH]2)NC(=O)[C@H](CO)NC(=O)[C@H](Cc2c[nH]c3ccccc23)NC(=O)[C@H](CC(C)C)NC(=O)[C@H](Cc2ccccc2)NC1=O)[C@@H](C)O", "note": "(Ac-SEITKQEK[X1]FLWSHR[X2]YC-NH2; staple 9-16)", "Stability": "Stable"},
      {"smiles": "CC[C@H](C)[C@H](NC(=O)[C@H](CCC(=O)O)NC(=O)[C@H](CO)NC(C)=O)C(=O)N[C@H](C(=O)N[C@@H](CCCCN)C(=O)N[C@]1(C)CCCCCCC=CCCC[C@@](C)(C(=O)N[C@@H](Cc2cnc[nH]2)C(=O)N[C@@H](CCCNC(=N)N)C(=O)N[C@@H](Cc2cnc[nH]2)C(=O)N[C@@H](Cc2ccc(O)cc2)C(=O)N[C@@H](CS)C(N)=O)NC(=O)[C@H](Cc2c[nH]c3ccccc23)NC(=O)[C@H](CC(C)C)NC(=O)[C@H](Cc2ccccc2)NC(=O)[C@H](CC(=O)O)NC(=O)[C@H](CCCCN)NC(=O)[C@H](CCC(=O)O)NC1=O)[C@@H](C)O", "note": "(Ac-SEITK[R8]EKDFLW[S5]HRHYC-NH2; staple 6-13)", "Stability": "Stable"},
      {"smiles": "CC[C@H](C)[C@H](NC(=O)[C@H](CCC(=O)O)NC(C)=O)C(=O)N[C@H](C(=O)N[C@@H](CCCCN)C(=O)N[C@]1(C)CCCCCCC=CCCC[C@@](C)(C(=O)N[C@@H](Cc2cnc[nH]2)C(=O)N[C@@H](CCCNC(=N)N)C(N)=O)NC(=O)[C@H](Cc2c[nH]c3ccccc23)NC(=O)[C@H](CC(C)C)NC(=O)[C@H](Cc2ccccc2)NC(=O)[C@H](CC(=O)O)NC(=O)[C@H](CCCCN)NC(=O)[C@H](CCC(=O)O)NC1=O)[C@@H](C)O", "note": "(stereo in doubt; form 2) [listing 1 of 2 here]", "Stability": "Stable"}
    ]},
    {"target": "RAC-alpha serine/threonine-protein kinase (Homo sapiens) (UniProt P31749)", "sequence (P31749 whole entry)": "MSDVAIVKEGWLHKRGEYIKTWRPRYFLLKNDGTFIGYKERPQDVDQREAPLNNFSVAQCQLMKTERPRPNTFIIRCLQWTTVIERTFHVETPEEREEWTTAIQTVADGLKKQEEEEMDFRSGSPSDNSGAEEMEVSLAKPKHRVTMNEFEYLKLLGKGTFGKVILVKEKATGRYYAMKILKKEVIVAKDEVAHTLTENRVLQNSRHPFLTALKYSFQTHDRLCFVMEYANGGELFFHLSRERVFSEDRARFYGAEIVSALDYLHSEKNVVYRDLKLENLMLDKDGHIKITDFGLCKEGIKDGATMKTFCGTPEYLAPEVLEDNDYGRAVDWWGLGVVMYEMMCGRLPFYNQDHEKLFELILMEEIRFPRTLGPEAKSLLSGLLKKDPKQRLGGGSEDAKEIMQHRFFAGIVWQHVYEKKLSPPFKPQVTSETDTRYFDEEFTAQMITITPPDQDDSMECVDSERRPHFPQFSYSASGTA", "assay": "Inhibition of p110alpha[E545K]-IRS1 interaction-initiated Akt phosphorylation at Ser473 residue in DLD1 human colon cancer cells at 50 uM by Western blot analysis", "values": [
      {"smiles": "CC[C@H](C)[C@H](NC(=O)[C@H](CCC(=O)O)NC(=O)[C@H](CO)NC(C)=O)C(=O)N[C@H](C(=O)N[C@@H](CCCCN)C(=O)N[C@@H](CCC(N)=O)C(=O)N[C@@H](CCC(=O)O)C(=O)N[C@@H](CCCCN)C(=O)N[C@@]1(C)CCC/C=C/CCC[C@@](C)(C(=O)N[C@@H](Cc2cnc[nH]2)C(=O)N[C@@H](CCCNC(=N)N)C(=O)N[C@@H](Cc2cnc[nH]2)C(=O)N[C@@H](Cc2ccc(O)cc2)C(=O)N[C@@H](CS)C(N)=O)NC(=O)[C@H](Cc2c[nH]c3ccccc23)NC(=O)[C@H](CC(C)C)NC(=O)[C@H](Cc2ccccc2)NC1=O)[C@@H](C)O", "note": "(Ac-SEITKQEK[S5]FLW[S5]HRHYC-NH2; staple (E) 9-13)", "inhibition": "Active"},
      {"smiles": "CC[C@H](C)[C@H](NC(=O)[C@H](CCC(=O)O)NC(C)=O)C(=O)N[C@H](C(=O)N[C@@H](CCCCN)C(=O)N[C@]1(C)CCCCCCC=CCCC[C@@](C)(C(=O)N[C@@H](Cc2cnc[nH]2)C(=O)N[C@@H](CCCNC(=N)N)C(N)=O)NC(=O)[C@H](Cc2c[nH]c3ccccc23)NC(=O)[C@H](CC(C)C)NC(=O)[C@H](Cc2ccccc2)NC(=O)[C@H](CC(=O)O)NC(=O)[C@H](CCCCN)NC(=O)[C@H](CCC(=O)O)NC1=O)[C@@H](C)O", "note": "(stereo in doubt; form 1)", "inhibition": "Active"},
      {"smiles": "CC[C@H](C)[C@H](NC(=O)[C@H](CCC(=O)O)NC(C)=O)C(=O)N[C@H](C(=O)N[C@@H](CCCCN)C(=O)N[C@]1(C)CCCCCCC=CCCC[C@@](C)(C(=O)N[C@@H](Cc2cnc[nH]2)C(=O)N[C@@H](CCCNC(=N)N)C(N)=O)NC(=O)[C@H](Cc2c[nH]c3ccccc23)NC(=O)[C@H](CC(C)C)NC(=O)[C@H](Cc2ccccc2)NC(=O)[C@H](CC(=O)O)NC(=O)[C@H](CCCCN)NC(=O)[C@H](CCC(=O)O)NC1=O)[C@@H](C)O", "note": "(stereo in doubt; form 2) [listing 2 of 2 here]", "inhibition": "Active"}
    ]}
  ]
}
